What is called TGI is the concentration giving total growth inhibition. The term GI50 denotes the concentration giving 50% growth inhibition.

This is an account of results in patent publication US9598364B2, “Indolyl or indolinyl hydroxamate compounds” (Taipei Medical University, priority 2010, dated 2017).

For one test, the system named is HL60. Nature of the test: cells. The procedure: (§1) 10^4 cells per well were seeded in 96-well culture plates with or without one of the test compounds. Various concentrations for the test compound were examined. […] The drug concentration resulting in total growth inhibition (TGI) is determined when Ti=Tz.
(§2) Cells were seeded in a 96-well flat-bottomed plate (2,500 to 3,000 cells per well). […] After being incubated at 37° C. for 2 h, the supernatant was removed and 200 μl/well of DMSO were added to dissolve the remaining MTT dye. The absorbance at 570 nm in each well was determined using a plate reader.

For a further test, the system named is K562. In words: cells. The procedure: as §1, §2
The next test concerns MV4-11. In words: cells. As for the experimental part:
as §1, §2

In another test the test system is NB4. Nature of the test: cells. As for the experimental part: as §1, §2
For a further test, the system named is U937. In words: cells. The procedure: as §1, §2
Test [1] concerns A549 (non-small cell lung cancer). Nature of the test: SRB assay, A549. The test is classed as cell-based, Human. Particulars: Homo sapiens, A549 cells, 48 h. The procedure:
(§3) Human cancer A549 (non-small cell lung cancer), MDA-MB-231 (estrogen-independent breast cancer), Hep 3B (hepatoma), and HA22T (hepatoma) cells were seeded in 96-well plates in medium with 5% FBS. After 24 h, cells were fixed with 10% trichloroacetic acid (TCA) to represent cell population at the time of compound addition (T0). After additional incubation of DMSO or test compound for 48 h, cells were fixed with 10% TCA and SRB at 0.4% (w/v) in 1% acetic acid was added to stain cells. Unbound SRB was washed out by 1% acetic acid and SRB bound cells were solubilized with 10 mM Trizrna base. The absorbance was read at a wavelength of 515 nm. Using the absorbance measurements of time zero (T0), the control group (C), and the cell growth in the presence of the compound (Ti), the percentage growth was calculated at each of the compound concentrations levels.

Test [2] concerns MDA-MB-231 (estrogen-independent breast cancer). Nature of the test: SRB assay, MDA-MB-231. Particulars: Homo sapiens, MDA-MB-231 cells, 48 h. The test is classed as cell-based. The procedure: as §3
For another test, the system named is Hep 3B (hepatoma). In words: SRB assay, Hep 3B. The test is classed as cell-based. Conditions: Homo sapiens, Hep3B, Hep-3B cells, 48 h, read-out: Hep-3B liver GI50. As for the experimental part: as §3
(In general: In SRB staining, fixed cells bind dye roughly in proportion to their protein.)

A further test relates to HA22T (hepatoma). In words: SRB assay, HA22T. Conditions: Homo sapiens, HA22T cells, 48 h, read-out: HA22T liver GI50. The test is classed as cell-based, Human. The procedure:
as §3

The test system of a further test is PC-3 cells. Nature of the test: Western blot analysis. It counts as cell-based. Conditions: PC-3 cells, 1, 2.5, or 5 μM, 48 hours. The procedure: PC-3 cells treated with a test compound at 1, 2.5, or 5 μM in RPMI 1640 supplemented with 10% FBS for 48 hours. The cells were collected and sonicated. Protein concentrations in the resultant lysates were determined by a Bradford protein assay kit (Bio-Rad, Hercules, Calif.). The protein lysate, containing the same amount of proteins, were subjected to 10% SDS-polyacrylarnide gel (10%) electrophoresis. The proteins on the gel were then transferred onto an Immobilon-nitrocellulose membrane (Millipore, Bellerica, Mass.) in a semi-dry transfer cell. The transblotted membrane was washed twice with tris-buffered saline containing 0.1% Tween 20 (TBST). After being blocked with TBST containing 5% nonfat milk for 40 min, the membrane was incubated with a primary antibody specific to Acetyl-H3 (antibody obtained from Upstate Biotechnology, Inc., Lake Placid, N.Y.), H3 (Upstate Biotechnology), Acetyl α-tubulin (Sigma-Aldrich, St. Louis, Mo.), phospho-Akt (Serine 473) (Cell Signaling Technologies, Danvers, Mass.), Akt (Cell Signaling Technologies), Acetyl p53 (Santa Cruz Biotechnology, Santa Cruz, Calif.), p53 (Santa Cruz Biotechnology), p21 (Santa Cruz Biotechnology), or α-tubulin (Sigma-Aldrich, St. Louis, Mo.) (1:3000 dilution) in TBST/1% nonfat milk at 4 overnight. The membrane was washed three times with TBST for a total of 15 min and then incubated with a goat anti-rabbit or anti-mouse IgG antibody conjugated with horseradish (diluted 1:3000) for 1 h at room temperature. After being washed for at least three times with TBST, the signal intensity for each protein band was determined.
(In general: In western blotting, separated proteins are transferred to a membrane and probed.)

For `O=C(C=Cc1ccc2c(c1)CCN2S(=O)(=O)c1ccccc1)NO` [Compound 12, 3-(1-benzenesulfonyl-2,3-dihydro-1H-indol-5-yl)-N-hydroxy-acrylamide], the concentration for total growth inhibition (TGI) in the test on HL60 (HL60 leukemia cells, MTT, 48 or 72 hr) came to 65.3 nM; with K562 (K562 leukemia cells, MTT, 48 or 72 hr), 982.0 nM; in the test with MV4-11 (MV4-11 leukemia cells, MTT, 48 or 72 hr) it was 50.2 nM; with NB4 (NB4 leukemia cells, MTT, 48 or 72 hr) it was 61.2 nM; with U937 (U937 leukemia cells, MTT, 48 or 72 hr), 8330.0 nM. Further, the GI50 in the test on HL60 (Homo sapiens, HL-60) is 32.9 nM; in the test with K562 (Homo sapiens, K562), 149 nM; with MV4-11 (Homo sapiens, MV4-11), 13.1 nM; in the test on NB4 (Homo sapiens, NB-4), 31.5 nM; in the test with U937 (Homo sapiens, U-937), 54.7 nM; in [1], 700 nM. Also, the GI50 in test [2] is 250 nM; in the test with Hep 3B (hepatoma), 210 nM; with HA22T (hepatoma), 620 nM. In addition, the CC50 was more than 10000 nM in the test on K562 (Homo sapiens, K562, read-out: LC50); 87.2 nM in the test with MV4-11 (Homo sapiens, MV4-11, read-out: LC50); 91 nM in the test on NB4 (Homo sapiens, NB-4, read-out: LC50); more than 10000 nM in the test with U937 (Homo sapiens, U-937, read-out: LC50). The H3 expression result in the test with PC-3 cells is recorded as “upregulated”. Moreover, the histone deacetylation result with PC-3 cells was “inhibited”. Further, in the test on PC-3 cells, the tubulin acetylation entry is reported as “upregulated”.
